Earlier results, collected in PubChem BioAssay AID1259409 (Chemical Carcinogenesis Research Information System (CCRIS), 2018).

System: rodent chemically induced tumor inhibition, incidence and multiplicity
Experiment: CCRIS tumor inhibitor studies
Conditions: Route [Inhibitor]: ORAL

Cc1c(C)c2c(c(C)c1O)CC[C@@](C)(CCC[C@H](C)CCC[C@H](C)CCCC(C)C)O2
tumour outcome (control, treated, inhibition, significance) (Carcinogen: 3,2-DIMETHYL-4-AMINOBIPHENYL, 13394-86-0, Dose [Inhibitor]: 0, 1% IN BASAL DIET BEGINNING POST CARCINOGEN TREATMENT AND CONTINUING FOR 40 WK (STUDY DURATION: 60 WK), Species: RAT, Strain/Sex: F344/MALE, Target Tissue: Type of Lesion: PANCREAS: ACINAR CELL NODULE, Dose [Carcinogen]: 50 MG/KG 1/2 WK FOR 20 WK TO RATS MAINTAINED ON ETHINYL ESTRADIOL CONTAINING DIET (0.75 PPM) FOR 1 WK CYCLED WITH ETHINY, Promoter: ETHINYL ESTRADIOL, 57-63-6): 4/10 (40%), 5/12 (42%), -5%, not significant
tumour outcome (control, treated, inhibition, significance) (Carcinogen: 3,2-DIMETHYL-4-AMINOBIPHENYL, 13394-86-0, Dose [Inhibitor]: 0, 1% IN BASAL DIET BEGINNING POST CARCINOGEN TREATMENT AND CONTINUING FOR 40 WK (STUDY DURATION: 60 WK), Species: RAT, Strain/Sex: F344/MALE, Target Tissue: Type of Lesion: PROSTATE: CARCINOMA, Dose [Carcinogen]: 50 MG/KG 1/2 WK FOR 20 WK TO RATS MAINTAINED ON ETHINYL ESTRADIOL CONTAINING DIET (0.75 PPM) FOR 1 WK CYCLED WITH ETHINY, Promoter: ETHINYL ESTRADIOL, 57-63-6): 5/10 (50%), 6/12 (50%), 0%, not significant
tumour outcome (control, treated, inhibition, significance) (Carcinogen: 4-NITROQUINOLINE 1-OXIDE, 56-57-5, Dose [Inhibitor]: 25.5, 550.9 MG/KG IN DIET FOR DURATION OF STUDY (STUDY DURATION: 23 WK), Species: MOUSE, Strain/Sex: DDY/MALE, Target Tissue: Type of Lesion: LUNG: TUMOR, Dose [Carcinogen]: 10 MG/KG BW SUSPENDED IN OLIVE OIL AND CHOLESTEROL (20:1, W/W) ONCE, Promoter: NONE USED): 6/11 (55%), 4/11 (36%), 36%, not significant
tumour outcome (control, treated, inhibition, significance) (Carcinogen: 4-NITROQUINOLINE 1-OXIDE, 56-57-5, Dose [Inhibitor]: EXCESSIVE VITAMIN E (DOSE NOT STATED) IN THE DIET FOR 4 WK POST CARCINOGEN DOSE (STUDY DURATION: 23 WK), Species: MOUSE, Strain/Sex: DDY/MALE, Target Tissue: Type of Lesion: LUNG: TUMOR, Dose [Carcinogen]: 10 MG/KG BW ONCE, Promoter: GLYCEROL, 56-81-5): 9/11 (82%), 5/11 (45%), 45%, not calculated
tumour outcome (control, treated, inhibition, significance) (Carcinogen: 4-NITROQUINOLINE 1-OXIDE, 56-57-5, Dose [Inhibitor]: EXCESSIVE VITAMIN E (DOSE NOT STATED) IN THE DIET FOR 23 WK POST CARCINOGEN DOSE (STUDY DURATION: 23 WK), Species: MOUSE, Strain/Sex: DDY/MALE, Target Tissue: Type of Lesion: LUNG: TUMOR, Dose [Carcinogen]: 10 MG/KG BW ONCE, Promoter: GLYCEROL, 56-81-5): 9/11 (82%), 2/9 (22%), 73%, not calculated
tumour outcome (control, treated, inhibition, significance) (Carcinogen: 7,12-DIMETHYLBENZ[A]ANTHRACENE, 57-97-6, Dose [Inhibitor]: 0, 3.349 UMOL/G IN DIET FOR DURATION OF STUDY (STUDY DURATION: 18 WK), Species: RAT, Strain/Sex: SPRAGUE-DAWLEY/FEMALE, Target Tissue: Type of Lesion: MAMMARY GLAND: TUMOR, Dose [Carcinogen]: 50 MG/KG IN SESAME OIL ONCE, Promoter: NONE USED): 88%, 79%, 10%, not significant
tumour outcome (control, treated, inhibition, significance) (Carcinogen: 7,12-DIMETHYLBENZ[A]ANTHRACENE, 57-97-6, Dose [Inhibitor]: 0.2% IN DIET FROM WEANING ONWARD (STUDY DURATION: 6 MO AFTER CARCINOGEN ADMINISTRATION), Species: RAT, Strain/Sex: SPRAGUE-DAWLEY/FEMALE, Target Tissue: Type of Lesion: MAMMARY GLAND: TUMOR, Dose [Carcinogen]: 10 MG/RAT IN 1 ML STRIPPED CORN OIL SINGLE DOSE ON D 50 FOLLOWING 24 HR FASTING PERIOD, Promoter: NONE USED): 70%, 70%, 0%, not calculated
tumour outcome (control, treated, inhibition, significance) (Carcinogen: 7,12-DIMETHYLBENZ[A]ANTHRACENE, 57-97-6, Dose [Inhibitor]: 0.2% IN DIET FROM WEANING ONWARD (STUDY DURATION: 6 MO AFTER CARCINOGEN ADMINISTRATION), Species: RAT, Strain/Sex: SPRAGUE-DAWLEY/FEMALE, Target Tissue: Type of Lesion: MAMMARY GLAND: TUMOR, Dose [Carcinogen]: 10 MG/RAT IN 1 ML STRIPPED CORN OIL, SINGLE DOSE ON D 5 FOLLOWING 24 HR FASTING PERIOD, Promoter: NONE USED): 40%, 37%, 8%, not calculated
tumour outcome (control, treated, inhibition, significance) (Carcinogen: 7,12-DIMETHYLBENZ[A]ANTHRACENE, 57-97-6, Dose [Inhibitor]: 0.2% IN DIET FROM WEANING ONWARD (STUDY DURATION: 6 MO AFTER CARCINOGEN ADMINISTRATION), Species: RAT, Strain/Sex: SPRAGUE-DAWLEY/FEMALE, Target Tissue: Type of Lesion: MAMMARY GLAND: TUMOR, Dose [Carcinogen]: 10 MG/RAT IN 1 ML STRIPPED CORN OIL, SINGLE DOSE ON D 50 FOLLOWING 24 HR FASTING PERIOD, Promoter: NONE USED): 100%, 100%, 0%, not calculated
tumour outcome (control, treated, inhibition, significance) (Carcinogen: 7,12-DIMETHYLBENZ[A]ANTHRACENE, 57-97-6, Dose [Inhibitor]: 0.2% IN DIET, UNSATURATED FAT THROUGHOUT THE EXPERIMENT, (STUDY DURATION: 32 WK), Species: RAT, Strain/Sex: SPRAGUE-DAWLEY/FEMALE, Target Tissue: Type of Lesion: MAMMARY GLAND: PARENCHYMAL CARCINOMA, Dose [Carcinogen]: 10 MG IN 1 ML CORN OIL AT 50 D OF AGE CELL ONCE, Promoter: NONE USED): 100%, 100%, 0%, not calculated
tumour outcome (control, treated, inhibition, significance) (Carcinogen: 7,12-DIMETHYLBENZ[A]ANTHRACENE, 57-97-6, Dose [Inhibitor]: 0.2% IN HIGH POLYUNSATURATED FAT DIET DAILY STARTING 29 D BEFORE CARCINOGEN TREATMENT AND CONTINUING FOR DURATION OF STU, Species: RAT, Strain/Sex: SPRAGUE-DAWLEY/FEMALE, Target Tissue: Type of Lesion: MAMMARY GLAND: ADENOCARCINOMA, Dose [Carcinogen]: 10 MG IN 1 ML STRIPPED CORN OIL ONCE AT 50 D OF AGE, Promoter: NONE USED): 100%, 100%, 0%, not calculated
